# Assay results reported in patent publication US20090030037A1, “Sustained Release Formulation and Dosing Schedules of Leukotriene Synthesis Inhibitor for Human Therapy” (deCODE Genetics ehf., priority 2005, published 2009).
# “And” between values parts separate entries of the source, which are not always exact repeats. Identical values can stand only once.
# Experiments:
# LDL-C = experiment: Study DG-031-204: LDL-C; format: in vivo, human; details: for LDL-C increase, mean change from baseline: after 4 weeks
# Method: An additional single site, open label study was carried out to obtain biomarker and safety data on additional DG-031 doses (i.e., 1000 mg and 1500 mg). This study examined the safety, tolerability and dose-related effects of DG-031 on inflammatory biomarkers including: LTB4, hsCRP, and MPO. A total of 119 patients with a prior history of CAD and MI were randomized to receive either 1000 mg DG-031 (500 mg BID) or 1500 mg DG-031 (500 mg TID) daily for 4-6 weeks. Treatment with DG-031 in addition to the subject's standard care, medication, and treatment, was prescribed by the patient's cardiologist. A majority of the subjects received statin therapy before, during and after the study. Follow-up assessments were performed 2 weeks after the end of study drug administration.
# The biomarkers were analyzed as described in Example 1. Statistical analysis of the data was carried out using a one-sample t-test on change from baseline with a two-sided nominal significance level of 0.050. Biomarker concentrations were log-transformed and a simple last observation carried forward (LOCF) scheme was used to impute missing observations.
# LDL-C was measured weekly after administration of DG-031 500 mg BID or 500 mg TID. The mean change from baseline after 4 weeks of treatment was an increase of 9% (p=0.004; n=52) for 500 mg BID and an increase of 9% (p<0.001; n=58) for the 500 TID group. […] The LDL-C effect appeared to increase over time and tended toward baseline values at the 2-week follow up visit. A preliminary exposure-response analysis of data from studies DG-031-201, DG-031-203, and DG-031-204 supported a dose related increase in LDL-C.
# [1] = Effect of high fat meal on DG-031 pharmacokinetics; format: in vivo, human; details: administration with a high fat meal
# Method: In the context of treatment of a single individual, a steady state concentration may be expected to fluctuate from day-to-day with variations in the individual's diet, level activity, state of health, co-administration of other medications, and the like. DG-031 is preferably administered with food to improve adsorption. […] Alternatively, DG-031 is administered in the absence of food. The decision whether or not to administer with food may be based on the Cmax and Cmin observed following administration of a novel formulation where the Cmax and Cmin fall within the desired range. […] In this context, the steady state concentration for an individual refers to an average concentration taken at multiple time points, to adjust for such fluctuation.
# LTB4 = experiment: Study DG-031-201: ionomycin-induced LTB4 production in whole blood ex vivo; design: species or system human; details: for LTB4 production, percent change: Study 201
# Method: Genet. 2004). Apart from FLAP, allele A of the SNP SG12S25 in the LTA4 hydrolase gene, another gene in the LT pathway, is also associated with MI, as described in PCT application no. PCT/US03/32556 and PCT/US04/30582 incorporated by reference.
# Patients who met the study eligibility criteria were enrolled and randomized into 3 different dose-level groups: (1) 64 patients on 250 mg/day therapy with DG-031 (250 mg q.d.), vs placebo; (2) 64 patients on 500 mg/day therapy with DG-031 (250 mg b.i.d.) vs placebo; and (3) 63 patients on 750 mg/day therapy with DG-031 (250 mg t.i.d.) vs placebo. […] All patients received 3 tablets per day. Treatment periods, 4 weeks in duration each, were separated by a 2-week washout period. The placebo tablets were identical in shape, color, form and taste to the active tablets except that they contained no active drug ingredients. Treatment with DG-031 or placebo was in addition to the subject's standard care, including all medications and treatment plan as prescribed by the subject's cardiologist prior to enrolment. A total of 191 subjects were enrolled, with 172 completing all 8 visits or 8 patients short of the target of 180 patients.
# The primary objective was to determine whether the FLAP inhibitor has a statistically significant effect, compared to placebo, on one or more biomarkers of MI risk, including: (1) ionomycin-induced LTB4 and MPO release by neutrophils ex vivo; (2) MPO, CRP, N-tyrosine, Lp-PLA2 or amyloid A in serum, or (3) LTE4 in urine. The secondary objective was to determine whether the effect of DG-031 was dose-dependent. The tertiary objective was to assess other biomarkers (See Results). Evaluation of safety and tolerability of the drug was also a primary endpoint.
# All data were analyzed according to a pre-established statistical analysis plan (SAP) and by intention-to-treat (ITT). Each arm of the study, as well as pooled sets (combining dose levels), was considered for the primary analysis. Each such set is an AB/BA cross-over design and in the primary analysis of efficacy, the levels of biomarkers of MI risk at the end of the treatment periods (visits 4 and 7) were used as primary response variables. The difference between DG-031 and placebo treatment was the primary outcome, assessed separately for each of the biomarkers. Treatment effect was tested using a two-sample t-test on the period differences for suitably transformed response variables, under an assumption of normality of the transformed data. We report treatment effect as one half of the observed mean differences in the two-sample t-test, with a 95% CI. No pre-tests for carry-over effect were performed as a part of the primary analysis. Tests for carry-over were done and are reported separately from results of primary analysis. All hypotheses were tested at a two-sided nominal significance level of 0.05 and p-values based on t-tests are reported. In addition, for the primary efficacy endpoints where the effects of the two highest doses on 10 primary variables were studied, a randomization test was performed which corrects for multiple testing and ensures that the key results are not affected by distributional concerns. In particular, 1 million permutations of the patients into the different study tracks were performed, generating a reference distribution for the maximum of the 10 t-statistics of the biomarkers under the null hypothesis of no drug effect. […]
smiles,measurement,setting,value
"O=C(O)[C@@H](c1ccc(OCc2ccc3ccccc3n2)cc1)C1CCCC1 [DG-031, (R)-(+)-alpha-cyclopentyl-4-(2-quinolinylmethoxy)-Benzeneacetic acid]","LDL-C increase, mean change from baseline",LDL-C; 500 mg BID,9%
same,"LDL-C increase, mean change from baseline",LDL-C; 500 mg TID,9%
same,"LDL-C percent change from baseline after 4 weeks of DG-031 administration, Mean",LDL-C; dose 250,2.3%
same,"LDL-C percent change from baseline after 4 weeks of DG-031 administration, Mean",LDL-C; dose 500,5.0%
same,"LDL-C percent change from baseline after 4 weeks of DG-031 administration, Mean",LDL-C; dose 750,7.7%
same,"LDL-C percent change from baseline after 4 weeks of DG-031 administration, Mean",LDL-C; dose 1000,10.3%
same,"LDL-C percent change from baseline after 4 weeks of DG-031 administration, Mean",LDL-C; dose 1250,13.0%
same,"LDL-C percent change from baseline after 4 weeks of DG-031 administration, Mean",LDL-C; dose 1500,15.7%
same,half-life,[1],shorter
same,"LTB4 production, percent change",LTB4; 250 mg BID,−18%
same,"LTB4 production, percent change",LTB4; 250 mg QD,−13%
same,"LTB4 production, percent change",LTB4; 250 mg TID,−34% (St. 201) and −34% (−201)
same,Reduction of capacity for LTB4 production,"LTB4; 250 mg TID, at steady state Cmin",30%
same,"Carry-over effect, LTB4 in whole blood, corr. for wbc","LTB4; difference visit 2 to 5, 500 and 750 mg/day vs placebo",−0.10
